In US8791067B2, “Method for treating malaria” (Morehouse School of Medicine, priority 2012, dated 2014):

What was measured:
Assay type in all cases: cell-based
[1] = tested on: HO-1; assay: HO-1 expression in mouse brain endothelial cell line CRL2581; details: CRL2581 cells; for expression of HO-1 mRNA and protein: data not shown
From the text: (§1) FIGS. 6D and 6E show protein expression of CXCL10 relative to actin in untreated control cells (D, E) and in cells treated with siSTAT3 (D), HEME (D, E), siSTAT3+HEME (D), AG490 (E) or AG490+HEME (E).
(§2) High level of free HEME produced during malaria infection causes inflammation that damages host vascular endothelium and is a major contributor to pathogenesis of severe malaria. To determine how HEME stimulates HO-1, CXCL10 and STAT3 signaling pathways in vitro, mouse brain endothelial cell line CRL2581 was treated with HEME and the effects of HEME on expression of HO-1, CXCL10 and STAT3 activation was assessed. […] When pSTAT3 was reduced by short interfering STAT3 (siSTAT3) (FIG. 6B) or pharmacological inhibitor of Jak, AG490 (FIG. 6C), HO-1 protein expression was inhibited correspondingly.

[2] = tested on: Human brain microvascular endothelial cells (HBVEC); assay: HEME-induced cell death of HBVEC by MTT assay; details: HEME+AG490 (50 μmol/l) for 24 h, FIG. 7
Procedure: Human brain microvascular endothelial cells (HBVEC) were treated with HEME or with HEME plus AG490 and monitored for cell death progression by MTT assay.
Cell death progression in HBVEC cultured after treatment with HEME or HEME+AG490 (50 μmol/l) for 24 h as assayed by MTT assay (*P<0.05, n=3 triplicate experiments). The curves correspond to 3 experiments run in parallel. In all the samples, the same concentration of vehicle (DMSO, 0.1%) was used.

[3] = tested on: CXCL10; assay: CXCL10 expression and promoter activity in mouse brain endothelial cell line CRL2581; details: CRL2581 cells
From the text: as §1, §2

[4] = tested on: STAT3; assay: STAT3 activation (pSTAT3) in HEME-treated mouse brain endothelial cell line CRL2581; details: CRL2581 cells; for pSTAT3 level: FIG. 6B, 6C, 6G
From the text: as §1, §2

[5] = tested on: JAK/STAT3 signaling pathway; assay: Human JAK/STAT signaling pathway real time RT^2 Profile PCR arrays in HBVEC; details: HBVEC treated with 20 μM HEME vs vehicle; FIG. 8
Procedure: Target genes of JAK/STAT3 signaling pathway upon HEME treatment was further assessed using real time RT^2 Profile PCR arrays (Qiagen, PAHS-039A). The results shown in FIG. 7 are expressed as the fold changes in expression obtained by comparing HBVEC treated with 20 μM HEME or with vehicle as control. […] The up regulated genes include STAT-induced gene matrix metallopeptidase 3 (MMP3), apoptosis-related gene CCAAT/enhancer binding protein (C/EBPb), Fc fragment of IgG, high affinity Ia, receptor (FCGR1A), Jun B proto-oncogene (JUNB), nuclear factor of kappa light polypeptide gene enhancer in B-cells 1 (NFκB), suppressor of cytokine signaling (SOCS3), SOCS4 and signal transducer and activator of transcription 4 (STAT4).

`N#C/C(=C\c1ccc(O)c(O)c1)C(=O)NCc1ccccc1` [AG490, tyrphostin AG490] was tested, and the HO-1 protein expression ([1]; HEME-induced, pSTAT3 reduced, FIG. 6B, 6C) was “inhibited”, the “HEME-induced apoptosis / cell death in HBVEC” value [2] was “can rescue the HEME-induced apoptosis” and the “expression of CXCL10” value ([3]; protein relative to actin, FIG. 6D, 6E) was “reduced expression”. The pSTAT3 level [4] was “reduced”.

With `C=CC1=C(C)c2cc3[n-]c(cc4nc(cc5[n-]c(cc1n2)c(C)c5CCC(=O)[O-])C(CCC(=O)[O-])=C4C)c(C)c3C=C.[Co+2].[H+].[H+]` [CoPP, cobalt protoporphyrin] the “expression of HO-1 mRNA and protein” value [1] was “significantly up regulated” and the pSTAT3 level [4] was “increased”.

`C=CC1=C(C)c2cc3[n-]c(cc4[n-]c(cc5nc(cc1n2)C(C)=C5C=C)c(C)c4CCC(=O)O)c(CCC(=O)O)c3C.[Fe+2]` [HEME] was tested, and the “expression of HO-1 mRNA and protein” value [1] was “significantly up regulated”, the “expression of CXCL10 mRNA” value [3] was “significantly up regulated” and the CXCL10 promoter activity ([3]; data not shown) was “enhances CXCL10 promoter activity in a dose-dependent manner”. For the same compound, the “HEME concentration at which pSTAT3 peaked” value ([4]; FIG. 6A) was 5 μM, the “HEME concentration from which pSTAT3 was increased” value ([4]; FIG. 6A) was 1 μM and the “fold-change of down regulated genes (F2R, OAS1)” value [5] was “greater than 2 fold”. For the same compound, the “fold-change of up regulated genes (MMP3, C/EBPb, FCGR1A, JUNB, NFκB, SOCS3, SOCS4, STAT4)” value [5] was “greater than 2 fold”.

`C=CC1=C(C)c2cc3[n-]c(cc4[n-]c(cc5nc(cc1n2)C(C)=C5C=C)c(C)c4CCC(=O)O)c(CCC(=O)O)c3C.[Zn+2]` [ZnPP] was tested, and the “expression of HO-1 mRNA and protein” value [1] was “down regulated” and the pSTAT3 level [4] was “decreased”.
